Data taken from ChEMBL document CHEMBL5113455, “Discovery of benzyloxyphenyl- and phenethylphenyl-imidazole derivatives as a new class of ante-drug type boosters” (Bioorg Med Chem Lett, 2022).

system: CYP3A4; assay: in vitro; conditions: rat, microsomes

Row | Compound | inhibition at 10 min, 10 µM [%]
1 | CC(=O)N1CCN(c2ccc(OCC3COC(Cn4ccnc4)(c4ccc(Cl)cc4Cl)O3)cc2)CC1 (centres undefined) [KETOCONAZOLE] | 94.4

same assay, conditions: rat, rat liver microsomes, probe midazolam

Row | Compound | inhibition at 10 min, 10 µM [%]
2 | COC(=O)c1ccc(CCc2ccc(-n3ccnc3)cc2)cc1 | 82.8
3 | O=C(O)c1ccc(CCc2ccc(-n3ccnc3)cc2)cc1 | 15.5
4 | CCCOC(=O)c1ccc(CCc2ccc(-n3ccnc3)cc2)cc1 | 90.4
5 | CCC(C)COC(=O)c1ccc(COc2ccc(-n3ccnc3)cc2)cc1 (centres undefined) | 58.4
6 | CC(=O)OCc1ccc(COc2ccc(-n3ccnc3)cc2)cc1 | 87.1
7 | O=C(OCCc1ccccc1)c1ccc(COc2ccc(-n3ccnc3)cc2)cc1 | 61.8
8 | O=C(Oc1ccc(-n2ccnc2)cc1)c1ccc(C(F)(F)F)cc1 | 15.6
9 | OCc1ccc(COc2ccc(-n3ccnc3)cc2)cc1 | 84.7
10 | O=C(Oc1ccc(-n2ccnc2)cc1)c1ccc(Cl)cc1 | 16.5

Next, values leading:

Row | inhibition at 10 min, 10 µM [%] | Compound
11 | 80.8 | Nn1nnc2ccccc21
12 | 42.6 | CCCOC(=O)c1ccc(COc2ccc(-n3ccnc3)cc2)cc1
13 | 6.7 | OCCOc1ccc(-n2ccnc2)cc1
14 | 34.7 | CC(=O)OCCOc1ccc(-n2ccnc2)cc1
15 | 10.4 | O=C(OCC(F)(F)F)c1ccc(COc2ccc(-n3ccnc3)cc2)cc1
16 | 72 | COC(=O)c1ccc(COc2ccc(-n3ccnc3)cc2)cc1
17 | 88.1 | N#Cc1ccc(COc2ccc(-n3ccnc3)cc2)cc1
18 | 15.5 | O=C(O)c1ccc(COc2ccc(-n3ccnc3)cc2)cc1
19 | 12.7 | CCOC(=O)COc1ccc(-n2ccnc2)cc1
20 | 74 | CCOC(=O)c1ccc(CCc2ccc(-n3ccnc3)cc2)cc1
21 | 72.2 | CCCCCCOC(=O)c1ccc(COc2ccc(-n3ccnc3)cc2)cc1
22 | 39.9 | CCCCOC(=O)c1ccc(COc2ccc(-n3ccnc3)cc2)cc1
23 | 82.5 | c1ccc(COc2ccc(-n3ccnc3)cc2)cc1

system: not listed separately; assay: Drug metabolism in rat liver microsome assessed as metabolite 4-[(4-imidazol-1-ylphenoxy)methyl]benzoic acid formation at 10 uM and measured upto 30 mins by liquid chromatography-tandem mass spectrometry; assay type: ADME; conditions: microsomes, 0.5 h

Row | Drug metabolism | Compound
24 | Metabolite_Detected | COC(=O)c1ccc(COc2ccc(-n3ccnc3)cc2)cc1
